Experimental data: patent US20030008309A1, “Microarrays and methods for evaluating activity of compounds having estrogen-like activity” (National Institute of Advanced Industrial Science and …, priority 2000, published 2003)

Test system: MCF-7 cells
Test: Microarray evaluation of estrogen-like activity (expression levels of estrogen-responsive genes/ESTs, Cy3/Cy5) in MCF-7 cells

## Clc1cc2c(cc1Cl)Oc1cc(Cl)c(Cl)cc1O2 [dioxin, 2,3,7,8-tetrachlorodibenzo-p-dioxin]
  evaluation value considering weighting factor (K): 32.90
10 nM treatment, n=1 to 203, independently determined
  Σ(E(example)n), summation value of expression levels: 207.49
Listed as example 2
  evaluation value = Σ[|log{BDE(A)n/BDE(Estrogen)n}|], n=1 to 203: 46.19
